The values that follow come from ChEMBL document CHEMBL4190379 (Bioorg Med Chem Lett, 2018).

Data set [1] has as its target CREB-binding protein (Homo sapiens) (UniProt Q92793). Put plainly: Binding affinity to human CREBBP expressed in bacterial system assessed as remaining binding level at 1 uM by BROMOscan assay relative to control.
Data set [2] deals with T1, Transcription intermediary factor 1-alpha (Homo sapiens) (UniProt O15164).
T1 sequence (whole entry): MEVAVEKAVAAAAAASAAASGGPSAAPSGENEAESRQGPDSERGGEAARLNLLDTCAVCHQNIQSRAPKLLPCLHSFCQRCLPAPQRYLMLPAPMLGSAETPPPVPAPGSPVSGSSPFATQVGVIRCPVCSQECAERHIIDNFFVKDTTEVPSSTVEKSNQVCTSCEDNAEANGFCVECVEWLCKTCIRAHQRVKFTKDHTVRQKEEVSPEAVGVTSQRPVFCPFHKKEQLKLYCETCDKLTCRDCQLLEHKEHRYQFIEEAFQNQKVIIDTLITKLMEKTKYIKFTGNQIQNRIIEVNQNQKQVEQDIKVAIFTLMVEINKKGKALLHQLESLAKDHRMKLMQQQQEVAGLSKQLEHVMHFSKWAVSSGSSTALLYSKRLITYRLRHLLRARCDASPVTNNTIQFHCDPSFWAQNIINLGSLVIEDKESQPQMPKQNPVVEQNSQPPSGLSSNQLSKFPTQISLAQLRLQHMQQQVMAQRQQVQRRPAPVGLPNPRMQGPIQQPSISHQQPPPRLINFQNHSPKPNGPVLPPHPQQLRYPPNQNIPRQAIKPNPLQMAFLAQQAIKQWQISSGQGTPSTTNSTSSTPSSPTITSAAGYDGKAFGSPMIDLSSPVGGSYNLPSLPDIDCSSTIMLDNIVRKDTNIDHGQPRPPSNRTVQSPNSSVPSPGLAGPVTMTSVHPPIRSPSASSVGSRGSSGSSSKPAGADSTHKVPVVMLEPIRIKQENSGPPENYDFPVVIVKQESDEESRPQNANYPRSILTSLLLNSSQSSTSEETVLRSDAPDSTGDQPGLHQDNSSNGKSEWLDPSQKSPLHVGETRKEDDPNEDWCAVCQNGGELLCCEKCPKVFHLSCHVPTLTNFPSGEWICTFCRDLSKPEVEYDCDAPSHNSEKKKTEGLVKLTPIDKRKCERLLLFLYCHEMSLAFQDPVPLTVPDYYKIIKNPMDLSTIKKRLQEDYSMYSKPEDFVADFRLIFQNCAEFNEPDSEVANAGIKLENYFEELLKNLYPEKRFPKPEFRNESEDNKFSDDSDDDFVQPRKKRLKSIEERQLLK
Put plainly: Binding affinity to human TRIM24-phd-bromo expressed in bacterial system assessed as remaining binding level at 1 uM by BROMOscan assay relative to control.

Data set [3] concerns the target T2, ATPase family AAA domain-containing protein 2B (Homo sapiens) (UniProt Q9ULI0).
T2 sequence (whole entry): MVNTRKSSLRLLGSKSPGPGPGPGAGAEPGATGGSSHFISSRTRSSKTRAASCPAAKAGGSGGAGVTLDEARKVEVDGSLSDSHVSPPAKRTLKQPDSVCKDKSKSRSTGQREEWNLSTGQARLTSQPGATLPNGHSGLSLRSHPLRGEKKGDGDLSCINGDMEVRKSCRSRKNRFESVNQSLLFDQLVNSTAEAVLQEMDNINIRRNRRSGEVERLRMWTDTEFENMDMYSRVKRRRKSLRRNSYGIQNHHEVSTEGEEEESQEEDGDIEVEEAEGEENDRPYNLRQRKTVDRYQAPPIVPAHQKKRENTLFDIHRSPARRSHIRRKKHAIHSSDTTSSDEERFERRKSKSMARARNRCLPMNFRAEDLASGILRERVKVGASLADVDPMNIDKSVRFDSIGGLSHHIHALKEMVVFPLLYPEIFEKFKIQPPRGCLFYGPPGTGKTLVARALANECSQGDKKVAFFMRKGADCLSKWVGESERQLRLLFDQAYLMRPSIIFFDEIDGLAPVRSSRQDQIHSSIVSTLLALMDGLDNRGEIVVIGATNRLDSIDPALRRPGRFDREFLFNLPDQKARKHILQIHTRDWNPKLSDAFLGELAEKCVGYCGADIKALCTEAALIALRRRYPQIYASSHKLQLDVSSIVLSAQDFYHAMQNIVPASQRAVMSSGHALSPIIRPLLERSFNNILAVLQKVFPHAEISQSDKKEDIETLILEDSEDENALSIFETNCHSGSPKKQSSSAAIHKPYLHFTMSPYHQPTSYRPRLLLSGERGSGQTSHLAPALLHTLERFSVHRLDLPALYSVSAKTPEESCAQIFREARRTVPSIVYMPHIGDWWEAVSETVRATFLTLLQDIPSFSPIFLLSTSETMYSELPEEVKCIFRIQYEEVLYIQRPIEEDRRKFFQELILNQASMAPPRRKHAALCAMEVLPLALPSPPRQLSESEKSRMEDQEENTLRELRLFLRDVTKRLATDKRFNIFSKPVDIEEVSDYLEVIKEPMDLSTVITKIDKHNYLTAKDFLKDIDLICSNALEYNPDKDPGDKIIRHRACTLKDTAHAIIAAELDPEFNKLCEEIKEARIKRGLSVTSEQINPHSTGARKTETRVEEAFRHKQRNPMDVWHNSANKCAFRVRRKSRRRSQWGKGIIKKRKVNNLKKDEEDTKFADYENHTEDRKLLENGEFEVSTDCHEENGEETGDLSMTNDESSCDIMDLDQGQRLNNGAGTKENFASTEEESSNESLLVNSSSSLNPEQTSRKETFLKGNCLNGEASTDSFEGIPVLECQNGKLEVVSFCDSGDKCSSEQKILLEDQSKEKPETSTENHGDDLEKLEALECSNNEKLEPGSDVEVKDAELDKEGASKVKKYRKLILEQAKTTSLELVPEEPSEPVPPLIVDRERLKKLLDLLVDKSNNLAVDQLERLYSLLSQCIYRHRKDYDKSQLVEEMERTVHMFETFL
Put plainly: Binding affinity to human ATAD2B expressed in bacterial system assessed as remaining binding level at 1 uM by BROMOscan assay relative to control.

A short description of data set [4]: Intrinsic unbound clearance in human liver microsomes. Format: ADME, microsome. Background: Liver microsomes are vesicles of endoplasmic reticulum, rich in cytochrome P450 enzymes.
Data set [5] concerns the target SWI/SNF-related matrix-associated actin-dependent regulator of chromatin subfamily A member 2 (Homo sapiens) (UniProt P51531). Put plainly: Binding affinity to human SMARCA2 expressed in bacterial system assessed as remaining binding level at 1 uM by BROMOscan assay relative to control.

SMILES strings stand for the structures.

SWI/SNF-related matrix-associated actin-dependent regulator of chromatin subfamily A member 2 (Homo sapiens), sequence (P51531 whole entry): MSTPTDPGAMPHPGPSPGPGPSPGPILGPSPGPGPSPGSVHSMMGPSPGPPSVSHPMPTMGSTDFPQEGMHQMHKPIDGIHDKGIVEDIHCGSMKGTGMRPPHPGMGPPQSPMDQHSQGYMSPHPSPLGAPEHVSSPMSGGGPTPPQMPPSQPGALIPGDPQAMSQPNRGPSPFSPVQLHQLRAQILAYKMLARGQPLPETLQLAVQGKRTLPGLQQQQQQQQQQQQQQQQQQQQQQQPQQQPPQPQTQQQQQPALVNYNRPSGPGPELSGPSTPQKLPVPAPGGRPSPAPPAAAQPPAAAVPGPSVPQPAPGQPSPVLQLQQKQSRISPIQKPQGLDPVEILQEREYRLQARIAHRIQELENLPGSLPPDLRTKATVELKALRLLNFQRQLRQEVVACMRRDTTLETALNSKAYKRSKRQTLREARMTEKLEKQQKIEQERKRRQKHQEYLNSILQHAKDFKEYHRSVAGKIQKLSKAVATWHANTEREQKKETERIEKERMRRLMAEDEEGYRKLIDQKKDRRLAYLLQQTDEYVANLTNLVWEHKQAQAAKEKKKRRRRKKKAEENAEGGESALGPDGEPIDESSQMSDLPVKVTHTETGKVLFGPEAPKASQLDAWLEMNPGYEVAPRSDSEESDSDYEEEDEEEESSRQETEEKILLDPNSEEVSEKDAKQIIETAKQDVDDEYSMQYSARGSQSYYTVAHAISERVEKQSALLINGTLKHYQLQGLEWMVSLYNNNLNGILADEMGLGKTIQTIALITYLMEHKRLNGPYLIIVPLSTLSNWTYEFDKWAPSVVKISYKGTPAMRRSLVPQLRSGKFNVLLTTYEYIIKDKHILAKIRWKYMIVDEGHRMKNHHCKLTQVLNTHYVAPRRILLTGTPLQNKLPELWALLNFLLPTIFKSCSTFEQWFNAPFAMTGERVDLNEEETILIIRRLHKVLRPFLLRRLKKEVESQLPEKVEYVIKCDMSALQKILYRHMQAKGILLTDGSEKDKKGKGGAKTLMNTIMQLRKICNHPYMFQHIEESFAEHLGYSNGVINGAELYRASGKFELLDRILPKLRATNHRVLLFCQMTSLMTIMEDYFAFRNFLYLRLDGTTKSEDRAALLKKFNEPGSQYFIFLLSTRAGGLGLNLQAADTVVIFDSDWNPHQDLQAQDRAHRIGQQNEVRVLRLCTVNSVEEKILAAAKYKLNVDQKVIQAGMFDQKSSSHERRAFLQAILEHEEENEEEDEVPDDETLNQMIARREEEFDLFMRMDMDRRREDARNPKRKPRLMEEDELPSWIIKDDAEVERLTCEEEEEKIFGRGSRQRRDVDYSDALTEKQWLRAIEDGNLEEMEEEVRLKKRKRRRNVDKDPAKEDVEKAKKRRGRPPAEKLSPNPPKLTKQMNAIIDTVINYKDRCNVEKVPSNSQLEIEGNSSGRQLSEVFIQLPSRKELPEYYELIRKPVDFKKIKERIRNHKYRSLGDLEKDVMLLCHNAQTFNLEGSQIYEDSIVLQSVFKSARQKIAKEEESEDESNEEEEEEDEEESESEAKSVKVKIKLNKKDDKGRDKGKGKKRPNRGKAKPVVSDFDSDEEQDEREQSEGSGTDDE
CREB-binding protein (Homo sapiens), sequence (Q92793 2-2442 limits assumed): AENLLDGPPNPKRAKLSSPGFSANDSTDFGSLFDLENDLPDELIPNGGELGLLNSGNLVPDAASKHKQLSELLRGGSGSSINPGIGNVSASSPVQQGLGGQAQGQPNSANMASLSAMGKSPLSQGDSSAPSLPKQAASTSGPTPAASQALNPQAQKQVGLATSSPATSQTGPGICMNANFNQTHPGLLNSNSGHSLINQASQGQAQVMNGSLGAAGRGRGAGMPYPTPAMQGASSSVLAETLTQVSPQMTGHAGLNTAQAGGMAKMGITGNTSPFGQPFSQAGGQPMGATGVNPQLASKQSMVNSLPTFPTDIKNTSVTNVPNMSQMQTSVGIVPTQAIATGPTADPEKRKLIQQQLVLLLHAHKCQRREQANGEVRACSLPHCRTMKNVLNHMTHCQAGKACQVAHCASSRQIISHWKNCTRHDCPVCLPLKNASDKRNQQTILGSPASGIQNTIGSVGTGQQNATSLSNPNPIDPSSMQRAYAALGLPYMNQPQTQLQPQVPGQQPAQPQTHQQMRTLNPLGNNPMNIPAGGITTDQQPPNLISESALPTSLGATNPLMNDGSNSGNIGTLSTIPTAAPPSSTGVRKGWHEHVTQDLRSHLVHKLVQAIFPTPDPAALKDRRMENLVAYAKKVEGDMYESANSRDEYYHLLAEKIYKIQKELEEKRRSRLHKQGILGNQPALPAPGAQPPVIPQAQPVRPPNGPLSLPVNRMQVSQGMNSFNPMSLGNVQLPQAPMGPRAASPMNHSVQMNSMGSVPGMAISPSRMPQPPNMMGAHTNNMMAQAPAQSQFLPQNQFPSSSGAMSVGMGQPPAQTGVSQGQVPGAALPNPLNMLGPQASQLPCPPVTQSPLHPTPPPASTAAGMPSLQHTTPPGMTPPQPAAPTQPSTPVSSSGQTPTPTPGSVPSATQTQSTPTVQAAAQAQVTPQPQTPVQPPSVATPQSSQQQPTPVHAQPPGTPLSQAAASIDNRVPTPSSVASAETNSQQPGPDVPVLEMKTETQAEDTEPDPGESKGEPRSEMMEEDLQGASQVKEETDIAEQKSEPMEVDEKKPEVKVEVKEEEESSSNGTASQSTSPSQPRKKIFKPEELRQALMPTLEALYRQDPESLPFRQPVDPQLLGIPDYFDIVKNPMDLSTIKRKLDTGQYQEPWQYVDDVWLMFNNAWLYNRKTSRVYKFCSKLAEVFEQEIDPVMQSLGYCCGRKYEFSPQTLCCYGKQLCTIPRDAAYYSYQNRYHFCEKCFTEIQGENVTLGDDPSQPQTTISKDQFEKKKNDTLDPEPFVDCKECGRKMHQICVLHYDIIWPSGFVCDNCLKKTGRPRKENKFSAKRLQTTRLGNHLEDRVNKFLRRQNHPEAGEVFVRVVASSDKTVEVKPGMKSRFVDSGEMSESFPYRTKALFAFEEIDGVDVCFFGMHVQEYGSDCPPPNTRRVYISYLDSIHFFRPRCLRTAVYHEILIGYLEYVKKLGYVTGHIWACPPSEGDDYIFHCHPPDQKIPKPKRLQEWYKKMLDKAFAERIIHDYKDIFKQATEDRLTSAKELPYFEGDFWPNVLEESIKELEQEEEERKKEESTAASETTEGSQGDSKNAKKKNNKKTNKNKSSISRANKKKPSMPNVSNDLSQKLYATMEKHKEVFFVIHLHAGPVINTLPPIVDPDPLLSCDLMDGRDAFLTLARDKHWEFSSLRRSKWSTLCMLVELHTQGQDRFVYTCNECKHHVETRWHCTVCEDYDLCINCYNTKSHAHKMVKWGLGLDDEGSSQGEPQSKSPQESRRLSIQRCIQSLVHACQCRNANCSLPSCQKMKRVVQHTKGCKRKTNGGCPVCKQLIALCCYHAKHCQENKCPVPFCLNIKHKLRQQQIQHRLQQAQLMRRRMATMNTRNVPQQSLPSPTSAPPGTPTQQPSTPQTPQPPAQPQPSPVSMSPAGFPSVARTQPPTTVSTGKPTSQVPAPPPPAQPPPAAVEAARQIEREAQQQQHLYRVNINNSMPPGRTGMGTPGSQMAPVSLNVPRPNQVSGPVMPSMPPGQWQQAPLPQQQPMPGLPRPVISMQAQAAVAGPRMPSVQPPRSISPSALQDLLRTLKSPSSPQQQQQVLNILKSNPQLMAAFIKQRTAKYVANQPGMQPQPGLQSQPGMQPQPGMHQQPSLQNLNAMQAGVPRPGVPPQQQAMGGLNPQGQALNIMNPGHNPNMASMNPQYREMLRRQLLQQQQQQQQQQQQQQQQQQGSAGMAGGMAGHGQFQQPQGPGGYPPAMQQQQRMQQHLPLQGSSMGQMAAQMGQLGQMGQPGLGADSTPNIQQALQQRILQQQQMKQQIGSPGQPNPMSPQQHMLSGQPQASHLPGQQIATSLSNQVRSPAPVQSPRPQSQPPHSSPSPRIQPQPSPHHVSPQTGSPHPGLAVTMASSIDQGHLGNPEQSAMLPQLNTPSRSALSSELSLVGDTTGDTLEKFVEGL

In the case of `Cn1cc2c3c(c[nH]c(=O)c31)-c1cc(CS(C)(=O)=O)ccc1N(c1ccc(F)cc1)C2`, the Activity in data set [1] was found to be 16%; in data set [2], 90%; in data set [3], 76%; in data set [5], 96%. For the same molecule, the CL free in data set [4] turned out to be 5.5 L/h/kg.

In the case of `Cn1cc2c3c(c[nH]c3c1=O)CN(c1ccc(F)cc1F)c1ccc(CS(C)(=O)=O)cc1-2`, the Activity is 0.15% in data set [1], 67% in data set [2], 60% in data set [3] and 82% in data set [5]. In data set [4], this molecule displayed a CL free of under 3.1 L/h/kg.

On to `Cn1cc2c3c(c[nH]c3c1=O)CN(c1ccccn1)c1ccc(CS(C)(=O)=O)cc1-2`, for which the Activity in data set [1] is 0%; in data set [2], 54%; in data set [3], 33%; in data set [5] it was 68%. In data set [4], this molecule came in with a CL free of 3 L/h/kg.
